Source: a melting point compilation (Tetko et al.; mined from patent text by program, amines drawn as free bases though some values may be those of a salt)

| Compound | melting point [°C] |
| --- | --- |
| O=Cc1c2ccccc2cc2cc3ccccc3cc12 | 163 to 164 |
| COc1c(F)c(F)cc2c(=O)c(C(=O)O)cn(C3CC3)c12 | 185 to 186 |
| CCCCc1ncc(C=C2C(=O)NC(=O)N2Cc2ccc(Cl)cc2)n1Cc1ccc(C(=O)O)cc1 | 225 to 227 |
| COc1cc(C2NC(=O)C(C)S2)cc(OC)c1OC (stereo not drawn) | 133 to 134 |
| O=C1NCc2c1cc1ccc3c(c1c2-c1ccc(OCc2ccccc2)cc1)OCO3 | 257 to 260 |
| O=C(O)C1CCCN1C(=O)COc1ccccc1 (stereo not drawn) | 109 to 111 |
| O=C(O)CCCc1ccc(-c2ccccc2F)cc1 | 65 to 66 |
| COc1ccc(C(C#Cc2ccccc2)Cc2noc(C)n2)cc1OC1CCCC1 (racemic) | 86 to 90 |
| CCCNC(=O)C1(CC=Cc2ccccc2)c2ccccc2CCc2ccccc21 | 159 |
| OCc1nccc(N2CCCCC2)c1Cl | 68 to 70 |
| CC(=O)C(=Cc1ccc(C=O)c([N+](=O)[O-])c1)C(C)=O | 102 to 104 |
| COc1cc2nc(N3CCC(=O)CC3)nc(N)c2cc1OC | 228 to 230 |
| CCOP(=O)(COc1ccc(CO)cc1N)OCC | 181 to 184 |
| CCCCN(CCCC)c1ccc(C=Cc2ccc(C=CC3=C(C#N)C(=C(C#N)C#N)OC3(C)C(F)(F)F)s2)c(OC)c1 (stereo not drawn) | 191 to 193 |
| CCCc1nc2cc(CC(=O)O)ccc2o1 | 67 to 68 |
| CCOc1ccc(-n2cnnc2C(F)(F)F)cc1 | 70 |
| O=c1[nH]c2ccc(C=C3c4ccc(F)cc4CCc4cc(F)ccc43)cc2[nH]1 | 257 |
| C=CCN(CC=C)C(=O)Nc1cc(C)c(S(=O)(=O)C[N+](=O)[O-])c(C)c1 | 127 to 129 |
| Cc1ccc(S(=O)(=O)Oc2ccc(S(=O)(=O)C3=Cc4ccccc4C3)cc2)cc1 | 174 |
| CCOCc1nc2c(N)nc3cc(-c4cccnc4)ccc3c2n1CC(C)(C)O | 197 to 199 |
| CC1(C)CCS(=O)(=O)N1 | 72 |
| CCSc1cc2c(cc1F)C(=O)C(=O)N2 | 215 |
| O=C(Nc1ccncc1)C1c2ccccc2CCc2ccccc21 | 148 to 149 |
| CCOC(=O)C1=C(CCl)N2CCOC2(C)C(C(=O)OC)C1c1ccccc1Cl (stereo not drawn) | 142 to 143 |
| Cc1c(F)c(N2CCNC(C)C2)c(F)c2c1c(=O)c(C(=O)O)cn2C1CC1 (stereo not drawn) | 187 to 188 |

| Compound | melting point [°C] |
| --- | --- |
| O=C(Nc1ccccc1)Nc1cccnc1Cl | 178 to 180 |
| CN(C)c1ccc(-c2nc(Cl)c3ccccc3n2)cc1 | 167 to 170 |
| CC(C)(C)N1C(=O)c2cc([N+](=O)[O-])cnc2C1=O | 170 to 173 |
| Cn1nnc(-c2cccc(N)c2)n1 | 97 |
| CN1CCN(c2ncnc3oc(-c4ccc(N)nc4)c(-c4ccccc4)c23)CC1 | 229 to 231 |
| CCNC(=O)c1c(I)cccc1[Si](C)(C)C | 135 to 137 |
| Cc1cc(OCC(F)(F)F)c(NC(=O)CBr)c(OCC(F)(F)F)n1 | 153 to 154 |
| CCCC(=O)Nc1ccn(C2OC(CO)C(O)C2O)c(=O)n1 (stereo not drawn) | 108 to 110 |
| CNc1ccccc1C(=O)c1ccccc1 | 66 to 68 |
| Cc1cc(C)cc(C(=O)N2CCC(Oc3nc4ccccc4n3Cc3ccc(F)cc3)CC2Cc2ccccc2)c1 (stereo not drawn) | 154 |
| CCOc1ccc(CCN(C(=O)O)C(=O)[C@H](C)NC(C)=O)cc1OCC | 84 to 86 |
| CON=C(c1ccc(Cl)cc1)C(CNOC)CN1CCN(c2ccccn2)CC1 (stereo not drawn) | 106 to 109 |
| CNCC(=O)NCC1Cc2cc(C)c3[nH]c(=O)ccc3c2O1 (stereo not drawn) | 188 to 191 |
| CC(C)(C)c1ccc(C(=O)Nc2cn3cc(Br)ccc3n2)cc1 | 249 to 250 |
| Cc1cc(-c2sc(N3CCN(Cc4cccc(C(F)(F)F)c4)C3=O)nc2C)n[nH]1 | 163 to 164 |
| O=C(Nc1cc(=O)n(-c2c(Cl)cc(C(F)(F)F)cc2Cl)[nH]1)c1ccccc1 | 288 |
| O=C1NC(=O)c2c1cc1ccc3c(c1c2-c1ccc(F)cc1)OCO3 | 269 to 271 |
| O=C(O)CCC(=O)Nc1ccc2oc(-c3ccc(O)cc3)c(O)c(=O)c2c1 | 256 to 257 |
| CCOC(=O)c1cn(-c2ccc(OC)cc2)c(-c2ccc(OC)cc2)n1 | 142 to 143 |
| COC(=O)c1cc2cc(C)ccc2s1 | 78 to 79 |
| O=C(O)c1ccccc1-c1nnc(-c2cccc(C(F)(F)F)c2)o1 | 141 to 159 |
| O=C(CCCCCl)Nc1nnc(SCc2ccccc2)s1 | 145 to 148 |
| COC(=O)C(=CNc1ncnc2ccc(NC(=O)C(C)(C)C)cc12)C(=O)OC | 189 to 190 |
| Cc1cc(-n2ccnc2)c2cccc(OCc3c(Cl)ccc(S(=O)(=O)N4CCC[C@H]4C(=O)NCC4CCN(C)CC4)c3Cl)c2n1 | 86 |
| Clc1ccc(C(=Cn2cnnn2)OCc2ccccc2)c(Cl)c1 | 92 |

| Compound | melting point [°C] |
| --- | --- |
| Cc1c(N2CC(O)C2)c(F)cc2c(=O)c(C(=O)O)cn(-c3cc(N)c(F)cc3F)c12 | 206 to 208 |
| O=C(c1ccccc1)N1CCN(c2ccccc2)CCn2c1nc1ccccc12 | 217 to 220 |
| CC(C#CC1CCC(Oc2ccc(F)cc2)C1)N(O)C(N)=O (stereo not drawn) | 95.6 to 96.7 |
| CC(=O)NCC=C1CCc2c(Cl)cc3nn(C)cc3c21 | 177 to 178 |
| O=Cc1cnc(-c2ccc(F)cc2)nc1 | 168 |
| O=C(C=Cc1ccc(O)c([N+](=O)[O-])c1)N(c1ccccc1)c1ccccc1 | 197 to 198 |
| CC(C)(C)C(O)(COC1CCCCO1)Cn1ccnc1 (stereo not drawn) | 107 |
| CN1CC(=O)Nc2ccc(F)cc2C1=O | > 250 |
| CSc1ccccc1-c1cc2c(ccn2C)c2c1C(=O)NC2=O | 272 to 274 |
| COC(=O)c1ncc(Nc2cc(C)[nH]n2)nc1Nc1ccc(Cl)cc1 | 259 to 261 |
| CC(=O)Nc1ccc(OC(=O)C(CSSCC(NC(C)=O)C(=O)O)NC(C)=O)cc1 (stereo not drawn) | 95 to 99 |
| CS(=O)(=O)N1CCN(S(=O)(=O)c2ccc(-c3cccs3)cc2)[C@@H](C(=O)NOC2CCCCO2)C1 (stereo partly drawn) | 194 to 195 |
| O=C(Cl)c1ccc2ccccc2c1O | 87 to 88 |
| CCNc1ncnc2nc(-c3ccncc3)[nH]c12 | 308 to 310 |
| COC(=O)C1CC(=O)N(c2ccc(C)cc2)C1 (stereo not drawn) | 71 to 74 |
| CC(C)N(CCS(=O)(=O)c1ccc(Cl)cc1)C(=O)Oc1ccccc1 | 77.5 to 79 |
| NC1=NC(c2ccc(OC(F)F)cc2)(c2cccc(-c3cccnc3F)c2)C2=NCC3(CCC3)CN12 (stereo not drawn) | 220 to 226 |
| Cc1cc(-c2nc3ccccc3c(=O)[nH]2)cc(C)c1OCCO | 260 to 261 |
| O=c1c(-c2ccccc2)c(Cn2cnc3c(Cl)ncnc32)oc2ccccc12 | 187 to 190 |
| CCS(=O)(=O)C1(C(O)(Cn2cncn2)c2ccc(Cl)cc2)CC1 (stereo not drawn) | 215 |
| NS(=O)(=O)c1ccc(Nc2nc(OCC3CC=CCC3)c3nc[nH]c3n2)cc1 (stereo not drawn) | 165 |
| CC(C)Cc1nn(C)c(=O)c2c(S(=O)CCCO)c(Cc3cccc4ccccc34)sc12 (stereo not drawn) | 60 to 65 |
| COc1c(N2CCC(NC3CC3)C(C)C2)c(F)c(N)c2c(=O)c(C(=O)O)cn(C3CC3)c12 (stereo not drawn) | 218 to 220 |
